The source of these data is article PMC6930573, “Discovery of Selective Butyrylcholinesterase (BChE) Inhibitors through a Combination of Computational Studies and Biological Evaluations” (Molecules, 2019).

One data set concerns hAChE. Also on record: method as in earlier work. Conditions: Figure 1; ref 22 (1), 23 (2); cited from earlier work.
Another data set concerns hBChE. Conditions: read-out: IC50 (hBChE); Figure 1; ref 22 (1), 23 (2), 24 (3), 25 (4); cited from earlier work.
Data set [1] addresses T1, AChE (from human erythrocytes) (Homo sapiens, UniProt P22303).
T1 construct: AChE (from human erythrocytes, C0663); purchased Sigma-Aldrich C0663; host or cells: human erythrocytes
Briefly: biochemical. The format is biochemical. The settings on record: mean ± SEM of three experiments; for AChE IR (inhibition ratio): at 10 μM. The method, then:
(§1) Modified Ellman’s assay was performed to measure the inhibitory effects of purchased compounds on ChEs using a Thermo Fisher Scientific spectrophotometer. AChE (from human erythrocytes, C0663), BChE (from human serum, B4186), 5,5-dithiobis-(2-nitrobenzoic acid) (DTNB, D218200), acetylthiocholine iodide (ATC, A5751), and butyrylthiocholine iodide (BTC, B3253) were purchased from Sigma-Aldrich (St. Louis, MO, USA).
(§2) For measurement, a cuvette containing 30 μL of phosphate buffer, 10 μL of AChE (2.5 units/mL) or BChE (2.5 units/mL), and 10 μL of the test compound solution was allowed to stand for 5 min before 10 μL of DTNB was added. After the addition of 20 μL of ATC or BTC, the reaction was initiated and the solution was mixed immediately. […] 10 μL of phosphate-buffered solution replaced the enzyme solution were used to determine the blank value. All the measurements were done in triplicate. The inhibition curve was drawn by plotting the percentage enzyme activity (100% for the reference) versus the logarithm of the test compound concentration. The IC50 values were calculated by GraphPad Prism 6 (GraphPad Software, San Diego, CA, USA), and the data were shown as mean ± standard error of mean (SEM).

Another data set addresses T2, BChE (from human serum) (Homo sapiens, UniProt P06276).
T2 construct: BChE (from human serum, B4186); purchased Sigma-Aldrich B4186; host or cells: human serum
Nature of the data set: biochemical. Conditions: for BChE IR (inhibition ratio): at 10 μM; for BChE IR (inhibition ratio) / IC50: mean ± SEM of three experiments. The format is biochemical. The method, then: as §1, §2

Another data set concerns the target T3, BChE (Homo sapiens, UniProt P06276).
T3 construct: BChE (from human serum, B4186); purchased Sigma-Aldrich B4186; host or cells: human serum
Nature of the data set: Enzyme kinetic study with BChE (substrate BTC). The format is biochemical. Conditions: for Apparent Vmax: mean ± SD; for Kiu (inhibition constant for the uncompetitive part of inhibition) / Ki: mean ± SEM of three experiments; for Ki: read-out: Kic (inhibition constant for the competitive part of inhibition); for Mode of inhibition: substrate 90–904 μM, inhibitor 0.5–2 μM. The method, then: Kinetic studies were performed in the same manner as the determination of ChE inhibition as previously described. The substrate (BTC) was used at various concentrations (90, 150, 226, 452, and 904 μM) for each test compound concentration and the enzymatic reaction was extended to four minutes before determining the absorption. The Vmax and Km values of the Michaelis–Menten kinetics were calculated by nonlinear regression from substrate–velocity curves using Graphpad Prism 6 (GraphPad Software, San Diego, CA, USA) (Table S1). […]

In another data set the test system is SH-SY5Y cells. Nature of the data set: MTT cell viability assay. Conditions: 10 μM and 50 μM, 24 h. The format is cell-based. The procedure: The human neuroblastoma SH-SY5Y cells (3 × 10^3, DMEM medium supplemented with 10% fetal bovine serum, volume 0.1 mL) were placed in a 96-well flat-bottomed plate, in a humidified atmosphere of 95% air and 5% CO2 at 37 °C and grown to 80% confluence. Before cell treatment, the complete medium was replaced with reduced-serum medium (BI, 01-052-1ACS). Then, cells were treated with various concentrations of compounds for 24 h. MTT reagent (D&B, Q108115) (0.5 mg/mL) was added to the wells and the plates were incubated for 4 h at 37 °C. Supernatants were carefully removed, and 150 μL of dimethylsulfoxide (DMSO) were added into each well. The absorbance was measured at 570 nm using the spectrophotometer (Thermo, multiskan FC, USA). Cells were treated in quadruplicate. The values are the mean ± SD of three independent experiments.
In general terms: Tetrazolium dyes change colour on reduction, which living cells bring about.

As a reminder, the IC50 is the concentration needed to halve the response being measured.

Molecules are shown by their SMILES. Values joined by “and” are separate entries in the source; they are usually repeats but may differ in a detail not shown here. Identical values can stand only once.

T1 sequence (P22303 other isoform, or with tags, fused parts or gaps): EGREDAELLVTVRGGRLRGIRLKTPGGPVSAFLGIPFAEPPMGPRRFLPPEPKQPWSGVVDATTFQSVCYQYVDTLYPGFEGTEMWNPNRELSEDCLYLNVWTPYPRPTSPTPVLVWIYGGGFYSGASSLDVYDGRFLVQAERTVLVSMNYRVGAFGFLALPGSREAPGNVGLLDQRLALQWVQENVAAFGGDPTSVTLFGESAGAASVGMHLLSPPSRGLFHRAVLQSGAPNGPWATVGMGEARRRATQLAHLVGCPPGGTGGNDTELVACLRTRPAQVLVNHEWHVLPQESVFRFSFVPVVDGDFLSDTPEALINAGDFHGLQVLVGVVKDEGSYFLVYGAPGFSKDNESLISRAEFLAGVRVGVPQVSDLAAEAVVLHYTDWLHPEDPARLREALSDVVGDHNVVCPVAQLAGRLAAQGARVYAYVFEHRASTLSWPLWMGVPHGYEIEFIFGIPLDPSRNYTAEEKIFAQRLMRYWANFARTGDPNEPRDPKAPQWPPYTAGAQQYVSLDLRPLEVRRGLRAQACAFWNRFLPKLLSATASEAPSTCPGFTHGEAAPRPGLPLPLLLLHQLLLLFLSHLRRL
T3 sequence (P06276 29-602): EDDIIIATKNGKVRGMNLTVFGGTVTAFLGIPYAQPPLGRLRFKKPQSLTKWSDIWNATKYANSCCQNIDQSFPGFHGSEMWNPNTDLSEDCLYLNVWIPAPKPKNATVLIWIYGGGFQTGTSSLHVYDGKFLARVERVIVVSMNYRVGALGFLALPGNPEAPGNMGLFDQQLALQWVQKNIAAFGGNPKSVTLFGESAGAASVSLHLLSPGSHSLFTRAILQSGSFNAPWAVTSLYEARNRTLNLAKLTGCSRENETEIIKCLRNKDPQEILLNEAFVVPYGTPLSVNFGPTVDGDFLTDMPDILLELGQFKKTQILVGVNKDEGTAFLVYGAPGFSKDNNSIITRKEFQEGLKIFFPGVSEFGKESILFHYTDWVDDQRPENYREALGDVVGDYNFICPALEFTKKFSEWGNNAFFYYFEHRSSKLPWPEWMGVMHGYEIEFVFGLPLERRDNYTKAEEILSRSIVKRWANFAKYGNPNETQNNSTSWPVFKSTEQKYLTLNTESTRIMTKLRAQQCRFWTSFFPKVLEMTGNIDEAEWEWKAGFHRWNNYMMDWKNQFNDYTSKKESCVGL
T2 sequence (P06276 29-602): as above

For the compound `COCCN(CC1CCCN(Cc2ccccc2)C1)S(=O)(=O)c1ccc2ccccc2c1` (centres unmarked) [Compound 1, N-((1-benzylpiperidin-3-yl)methyl)-N-(2-methoxyethyl)naphthalene-2-sulfonamide], the IC50 in the data set with hAChE is over 10 µM.
As for `CN(C)CCN(CC1CCCN(C2Cc3ccccc3C2)C1)C(=O)c1ccc2ccccc2c1` (centres unmarked) [Compound 2], in the data set on hAChE, the IC50 is over 10 µM.
As for `O=C1NCCCc2c1c1ccccc1n2CCc1cccc(F)c1` [Compound 3], in the data set on hBChE, the IC50 is 0.0018 µM.
For the compound `CCCCCCCNC(=O)Oc1ccc2c(c1)CN(C)C(c1cccs1)N2C` (centres unmarked) [Compound 4], in the data set with hBChE, the IC50 was 0.013 µM.
On to `Cc1ccc(S(=O)(=O)Nc2nc3ccccc3nc2NCc2ccc(F)cc2)cc1C` [Compound 5], for which the “AChE IR (inhibition ratio)” value in data set [1] was −0.31 ± 0.5%. On BChE (from human serum), the “BChE IR (inhibition ratio)” value is reported as 7.2 ± 0.6%.
Regarding `Cc1nc(-c2cccc(F)c2)n(CCC(=O)NCCCc2ccccc2)c(=O)c1CCO` [Compound 6], in data set [1], the “AChE IR (inhibition ratio)” value was −1.5 ± 0.5%. The “BChE IR (inhibition ratio)” value on BChE (from human serum) was determined as 8.5 ± 0.3%.
Consider `Cc1noc(C)c1CN(C)Cc1ccn(S(=O)(=O)c2ccccc2)c1` [Compound 7], for which, in data set [1], the “AChE IR (inhibition ratio)” value was 0.6 ± 0.6%. Further, the “BChE IR (inhibition ratio)” value at BChE (from human serum) turned out to be 16.3 ± 1.1%.
`COc1ccccc1CN1CCCC(CN(CCN(C)C)C(=O)C(=O)c2ccccc2)C1` (centres unmarked) [Compound 8]: the “BChE selective index (SI BChE, AChE IC50/BChE IC50)” value at BChE (from human serum) is over 30. This compound also yielded an IC50 against BChE (from human serum) of 1.1 ± 0.6 µM. The “Apparent Vmax” value on BChE (inhibitor 0.5 µM) stood at 0.34 ± 0.01 µM/min; on BChE (inhibitor 1 µM) it was 0.27 ± 0.01 µM/min; on BChE (inhibitor 1.5 µM), 0.25 ± 0.01 µM/min; at BChE (inhibitor 2 µM), 0.24 ± 0.01 µM/min. Besides, the “Kiu (inhibition constant for the uncompetitive part of inhibition)” value at BChE is recorded as 3.61 ± 0.24 µM. Further, the Ki at BChE came to 0.88 ± 0.07 µM. Besides, the Mode of inhibition result on BChE is reported as “mixed-type inhibitors”. For the same compound, the “Effect on cell viability (cytotoxicity)” value with SH-SY5Y cells was “none of compounds was observed to affect cell viability”.
Regarding `COCCN1C(=O)N(CCc2ccccc2)C(=O)C12CCN(Cc1ccccc1)CC2` [Compound 9], the “AChE IR (inhibition ratio)” value in data set [1] stood at 16.0 ± 1.5%. The “BChE IR (inhibition ratio)” value at BChE (from human serum) was 15.5 ± 1.6%.
In the same order, the values of `O=C(CC1NC(N2CCN(Cc3ccccc3)CC2)=NC1=O)Nc1ccccc1` (centres unmarked) [Compound 10] are 7.8 ± 0.7% and 9.9 ± 1.0%.
Regarding `O=C(NC1(C(F)(F)F)N=C(c2ccccc2)N(Cc2ccccc2)C1=O)c1ccco1` (centres unmarked) [Compound 11], the “AChE IR (inhibition ratio)” value in data set [1] is reported as −0.7 ± 0.7%. Besides, the “BChE IR (inhibition ratio)” value at BChE (from human serum) stood at 14.8 ± 1.3%.
As for `CC1=NC2C(SC(=S)N2Cc2ccco2)C(=O)N1CC(=O)NCCc1ccccc1` (centres unmarked) [Compound 12], the “AChE IR (inhibition ratio)” value in data set [1] was determined as 1.1 ± 1.0%. In addition, the “BChE IR (inhibition ratio)” value on BChE (from human serum) is recorded as −1.8 ± 1.1%.
For the compound `COc1cccc(N(CC(=O)N2CCN(Cc3ccccc3)CC2)S(=O)(=O)c2ccccc2)c1` [Compound 13], the “AChE IR (inhibition ratio)” value in data set [1] is on record as 11.3 ± 1.3%. Also, at BChE (from human serum), the “BChE IR (inhibition ratio)” value is given as 20.1 ± 1.2%.
For the compound `CCN(Cc1ccccc1)C(=O)CCc1nc2ccsc2c(=O)n1Cc1ccccc1` [Compound 14], the “AChE IR (inhibition ratio)” value in data set [1] worked out at 10.9 ± 0.8%. Also, the “BChE IR (inhibition ratio)” value on BChE (from human serum) came to 3.4 ± 0.4%.
As to `O=C(O)C(c1c[nH]c2ccccc12)N1CCN(c2ccccn2)CC1` (centres unmarked) [Compound 15], in data set [1], the “AChE IR (inhibition ratio)” value is 0.6 ± 1.0%. Moreover, the “BChE IR (inhibition ratio)” value at BChE (from human serum) is reported as −0.6 ± 0.5%.
In the same order, the values of `COc1cccc(S(=O)(=O)NCC2CCCN(Cc3cc4ccccc4o3)C2)c1` (centres unmarked) [Compound 16] are 38.7 ± 1.7% and 26.4 ± 1.1%.
As to `Cc1cc(C)cc(N(CC(=O)N2CCN(Cc3ccccc3)CC2)S(=O)(=O)c2ccccc2)c1` [Compound 17], the “AChE IR (inhibition ratio)” value in data set [1] is 2.9 ± 0.5%. Further, the “BChE IR (inhibition ratio)” value at BChE (from human serum) was 11.8 ± 1.2%.
In the case of `COc1ccc(CCN2CCCC(O)(CNCc3cc(C)ccc3C)C2=O)cc1` (centres unmarked) [Compound 18], the “AChE IR (inhibition ratio)” value in data set [1] is 11.1% and 11.1 ± 1.5%. For the same compound, at BChE (from human serum), the “BChE selective index (SI BChE, AChE IC50/BChE IC50)” value is over 30; the “BChE IR (inhibition ratio)” value was 58.4% and 58.4 ± 0.9%; the IC50 was 6.3 ± 2 µM. Besides, the “Apparent Vmax” value on BChE (inhibitor 0.5 µM) was 0.49 ± 0.01 µM/min. Also, the “Apparent Vmax” value at BChE (inhibitor 1 µM) was found to be 0.42 ± 0.02 µM/min. Further, on BChE (inhibitor 1.5 µM), the “Apparent Vmax” value amounted to 0.39 ± 0.01 µM/min. At BChE (inhibitor 2 µM), the “Apparent Vmax” value was 0.28 ± 0.02 µM/min. In addition, at BChE, the “Kiu (inhibition constant for the uncompetitive part of inhibition)” value turned out to be 2.31 ± 0.32 µM, the Ki came out at 0.93 ± 0.13 µM and the Mode of inhibition entry is on record as “mixed-type inhibitors”. The “Effect on cell viability (cytotoxicity)” value in the data set with SH-SY5Y cells is recorded as “none of compounds was observed to affect cell viability”.
The compound `COC(=O)c1c(S(=O)(=O)Nc2ccc(C)cc2)sc2c1CCN(Cc1ccccc1O)C2` [Compound 19] gave an IC50 in data set [1] of 13.8 ± 6 µM. On BChE (from human serum), the “BChE selective index (SI BChE, AChE IC50/BChE IC50)” value is on record as 6 and inhibition was half-maximal at 2.4 ± 1 µM (IC50).
